Molecular target: T1, PD-1/PD-L1 (Homo sapiens, UniProt Q9NZQ7)
T1 construct: Recombinant human PD-L1 protein (19-238) with a His-tag at the C-terminus; purchased AcroBiosystems PD1-H5229 (PD-L1); PD1-H5257 (PD-1)
Assay: PD-1/PD-L1 homogenous time-resolved fluorescence (HTRF) binding assay
Conditions: recombinant human PD-L1 (19-238) His-tag / human PD-1 (25-167) Fc tag, class symbols
Description: Resolved Fluorescence (HTRF) Binding Assay
The assays were conducted in a standard black 384-well polystyrene plate with a final volume of 20 μL. Inhibitors were first serially diluted in DMSO and then added to the plate wells before the addition of other reaction components. The final concentration of DMSO in the assay was 1%. The assays were carried out at 25° C. in the PBS buffer (pH 7.4) with 0.05% Tween-20 and 0.1% BSA. Recombinant human PD-L1 protein (19-238) with a His-tag at the C-terminus was purchased from AcroBiosy stems (PD1-H5229). Recombinant human PD-1 protein (25-167) with Fc tag at the C-terminus was also purchased from AcroBiosystems (PD1-H5257). PD-L1 and PD-1 proteins were diluted in the assay buffer and 10 μL was added to the plate well. Plates were centrifuged and proteins were preincubated with inhibitors for 40 min. The incubation was followed by the addition of […] of HTRF detection buffer supplemented with Europium cryptate-labeled anti-human IgG (PerkinElmer-AD0212) specific for Fc and anti-His antibody conjugated to SureLight®-Allophycocyanin (APC, PerkinElmer-AD0059H). After centrifugation, the plate was incubated at 25° C. for 60 min. Before reading on a PHERAstar FS plate reader (665 nm/620 nm ratio). Final concentrations in the assay were […] PD1, 10 nM PD-L1, 1 nM europium anti-human IgG and 20 nM anti-His-Allophycocyanin. IC50 determination was performed by fitting the curve of percent control activity versus the log of the inhibitor concentration using the GraphPad Prism 5.0 software.
Data obtained for the Example compounds using the PD-1/PD-L1 homogenous time-resolved fluorescence (HTRF) binding assay described in Example A is provided in Table 4.

T1 sequence (Q9NZQ7 19-238): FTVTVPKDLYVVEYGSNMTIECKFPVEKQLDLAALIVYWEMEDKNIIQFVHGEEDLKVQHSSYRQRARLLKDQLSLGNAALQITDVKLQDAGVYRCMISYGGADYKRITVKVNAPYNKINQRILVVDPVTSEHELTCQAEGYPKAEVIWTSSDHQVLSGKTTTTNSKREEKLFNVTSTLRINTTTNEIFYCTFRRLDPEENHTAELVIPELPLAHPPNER

| SMILES | IC50 |
| --- | --- |
| COP(=O)(CN1CCc2nc(C(=O)N3CCc4c(-c5cccc6c5CCN6C(=O)c5nc6c(s5)CN(CP(=O)(OC)OC)CC6)cccc43)sc2C1)OC [Example 123, dimethyl ((2-(1′-(5-((dimethoxyphosphoryl)methyl)-4,5,6,7-tetrahydrothiazolo[5,4-c]pyridine-2-carbonyl)-[4,4′-biindoline]-1-carbonyl)-6,7-dihydrothiazolo[5,4-c]pyridin-5(4H)-yl)methyl)phosphonate] | < 25 nM |
| Cc1c(NCc2nc3c(s2)CNCC3)cccc1-c1cccc(NCc2nc3c(s2)CNCC3)c1C [Example 25, 2,2′-dimethyl-N3,N3′-bis((4,5,6,7-tetrahydrothiazolo[5,4-c]pyridin-2-yl)methyl)-[1,1′-biphenyl]-3,3′-diamine] | 25 to 100 nM |
| CNC(=O)CNCc1cnc2c(Nc3cccc(-c4cccc(Nc5nccc6cc(CNCC(=O)N(C)CCO)cnc56)c4C)c3C)nccc2c1 [Example 147, 2-(((8-((2,2′-dimethyl-3′-((3-(((2-(methylamino)-2-oxoethyl)amino)methyl)-1,7-naphthyridin-8-yl)amino)-[1,1′-biphenyl]-3-yl)amino)-1,7-naphthyridin-3-yl)methyl)amino)-N-(2-hydroxyethyl)-N-methylacetamide] | < 25 nM |
| CS(=O)(=O)NCCN1C2CCC1c1sc(C(=O)N3CCc4c(-c5cccc6c5CCN6C(=O)c5nc6c(s5)C5CCC(C6)N5CCNS(C)(=O)=O)cccc43)nc1C2 [Example 126, N,N′-((([4,4′-biindoline]-1,1′-dicarbonyl)bis(5,6,7,8-tetrahydro-4H-5,8-epiminocyclohepta[d]thiazole-2,9-diyl))bis(ethane-2,1-diyl))dimethanesulfonamide] | < 25 nM |
| Cc1c(NC(=O)c2nnc([C@H](C)N3CCCC[C@H]3C(=O)O)s2)cccc1-c1cccc(NC(=O)c2nnc([C@H](C)N3CCCC[C@H]3C(=O)O)s2)c1C [Example 17, (2S,2'S)-1,1′-((1S,1'S)-((((2,2′-dimethyl-[1,1′-biphenyl]-3,3′-diyl)bis(azanediyl))bis(carbonyl))bis(1,3,4-thiadiazole-5,2-diyl))bis(ethane-1,1-diyl))bis(piperidine-2-carboxylic acid)] | < 25 nM |
| O=C(Nc1cccc(-c2cccc(NC(=O)c3ncc(CN4C[C@H](O)C[C@H]4C(=O)O)s3)c2Cl)c1Cl)c1ncc(CN2C[C@H](O)C[C@H]2C(=O)O)s1 [Example 67, (2S,2'S,4R,4′R)-1,1′-(((((2,2′-dichloro-[1,1′-biphenyl]-3,3′-diyl)bis(azanediyl))bis(carbonyl))bis(thiazole-2,5-diyl))bis(methylene))bis(4-hydroxypyrrolidine-2-carboxylic acid)] | < 25 nM |
| Cc1c(NC(=O)c2nnc([C@H](C)N)o2)cccc1-c1cccc(NC(=O)c2nnc([C@H](C)N)o2)c1C [Example 9, N,N′-(2,2′-dimethyl-[1,1′-biphenyl]-3,3′-diyl)bis(5-((S)-1-aminoethyl)-1,3,4-oxadiazole-2-carboxamide)] | < 25 nM |
| Cc1c(NC(=O)c2ccc3c(n2)CCN(C)C3)cccc1-c1cccc(NC(=O)c2ccc3c(n2)CCN(C)C3)c1C [Example 175, N,N′-(2,2′-dimethyl-[1,1′-biphenyl]-3,3′-diyl)bis(6-methyl-5,6,7,8-tetrahydro-1,6-naphthyridine-2-carboxamide)] | < 25 nM |
| NC(=O)CN1C2CCC1c1sc(C(=O)N3CCc4c(-c5cccc6c5CCN6C(=O)c5nc6c(s5)C5CCC(C6)N5CC(=O)O)cccc43)nc1C2 (stereo not shown) [Example 111, 2-(2-(1′-(9-(2-amino-2-oxoethyl)-5,6,7,8-tetrahydro-4H-5,8-epiminocyclohepta[d]thiazole-2-carbonyl)-[4,4′-biindoline]-1-carbonyl)-5,6,7,8-tetrahydro-4H-5,8-epiminocyclohepta[d]thiazol-9-yl)acetic acid] | < 25 nM |
| Cc1c(NC(=O)c2nnc(CNCCO)s2)cccc1-c1cccc(NC(=O)c2nnc(CNCCO)s2)c1C [Example 73, N,N′-(2,2′-dimethyl-[1,1′-biphenyl]-3,3′-diyl)bis(5-(((2-hydroxyethyl)amino)methyl)-1,3,4-thiadiazole-2-carboxamide)] | < 25 nM |
| N#Cc1c(NC(=O)c2cn3c(n2)CNCC3)cccc1-c1cccc(NC(=O)c2cn3c(n2)CNCC3)c1C#N [Example 40, N,N′-(2,2′-dicyano-[1,1′-biphenyl]-3,3′-diyl)bis(5,6,7,8-tetrahydroimidazo[1,2-a]pyrazine-2-carboxamide)] | < 25 nM |
| O=C(Nc1cccc(-c2cccc(Nc3nccc4cc(CNCCO)cnc34)c2Cl)c1Cl)c1ncc(CNCCO)s1 [Example 98, N-(2,2′-dichloro-3′-((3-(((2-hydroxyethyl)amino)methyl)-1,7-naphthyridin-8-yl)amino)-[1,1′-biphenyl]-3-yl)-5-(((2-hydroxyethyl)amino)methyl)thiazole-2-carboxamide] | < 25 nM |

More lines, now with the values ahead:

| IC50 | SMILES |
| --- | --- |
| < 25 nM | Cc1nc(C(=O)Nc2cccc(-c3cccc4c3CCN4C(=O)c3nc(C)c(CN[C@H](C(=O)O)C4CCOCC4)s3)c2Cl)sc1CN[C@H](C(=O)O)C1CCOCC1 [Example 61, (S)-2-((2-(3-(1-(5-(((S)-carboxy(tetrahydro-2H-pyran-4-yl)methylamino)methyl)-4-methylthiazole-2-carbonyl)indolin-4-yl)-2-chlorophenylcarbamoyl)-4-methylthiazol-5-yl)methylamino)-2-(tetrahydro-2H-pyran-4-yl)acetic acid] |
| < 25 nM | CC(C(=O)NS(C)(=O)=O)N1CCc2nc(C(=O)N3CCc4c(-c5cccc6c5CCN6C(=O)c5nc6c(s5)CN(C(C)C(=O)NS(C)(=O)=O)CC6)cccc43)sc2C1 (stereo not shown) [Example 127, 2,2′-(([4,4′-biindoline]-1,1′-dicarbonyl)bis(6,7-dihydrothiazolo[5,4-c]pyridine-2,5(4H)-diyl))bis(N-(methylsulfonyl)propanamide)] |
| < 25 nM | Cc1c(NC(=O)c2ccc3c(n2)CCN(CC(=O)O)C3)cccc1-c1cccc(NC(=O)c2ccc3c(n2)CCN(CC(=O)O)C3)c1C [Example 173, 2,2′-((((2,2′-dimethyl-[1,1′-biphenyl]-3,3′-diyl)bis(azanediyl))bis(carbonyl))bis(7,8-dihydro-1,6-naphthyridine-2,6(5H)-diyl))diacetic acid] |
| 25 to 100 nM | CC(C)(C(=O)NS(C)(=O)=O)N1CCc2nc(C(=O)N3CCc4c(-c5cccc6c5CCN6C(=O)c5nc6c(s5)CN(C(C)(C)C(=O)NS(C)(=O)=O)CC6)cccc43)sc2C1 [Example 128, 2,2′-(([4,4′-biindoline]-1,1′-dicarbonyl)bis(6,7-dihydrothiazolo[5,4-c]pyridine-2,5(4H)-diyl))bis(2-methyl-N-(methylsulfonyl)propanamide)] |
| 100 to 200 nM | Cc1c(-c2cccc(N(C)C(=O)c3nc4c(s3)CNCC4)c2C)cccc1N(C)C(=O)c1nc2c(s1)CNCC2 [Example 23, N,N′-(2,2′-dimethyl-[1,1′-biphenyl]-3,3′-diyl)bis(N-methyl-4,5,6,7-tetrahydrothiazolo[5,4-c]pyridine-2-carboxamide)] |
| < 25 nM | NC(=O)CN1CCc2nc(C(=O)N3CCc4c(-c5cccc6c5CCN6C(=O)c5nc6c(s5)CN(CC(N)=O)CC6)cccc43)sc2C1 [Example 104, 2,2′-(([4,4′-biindoline]-1,1′-dicarbonyl)bis(6,7-dihydrothiazolo[5,4-c]pyridine-2,5(4H)-diyl))diacetamide] |
| 25 to 100 nM | Cc1c(NC(=O)c2ccc3c(n2)CCN(CC(F)F)C3)cccc1-c1cccc(NC(=O)c2ccc3c(n2)CCN(CC(F)F)C3)c1C [Example 187, N,N′-(2,2′-dimethyl-[1,1′-biphenyl]-3,3′-diyl)bis(6-(2,2-difluoroethyl)-5,6,7,8-tetrahydro-1,6-naphthyridine-2-carboxamide)] |
| < 25 nM | Cc1c(NC(=O)c2nc3c(s2)CNCCC3)cccc1-c1cccc(NC(=O)c2nc3c(s2)CNCCC3)c1C [Example 30, N,N′-(2,2′-dimethyl-[1,1′-biphenyl]-3,3′-diyl)bis(5,6,7,8-tetrahydro-4H-thiazolo[5,4-c]azepine-2-carboxamide)] |
| < 25 nM | O=C(c1nc2c(s1)CN(CCOCCO)CC2)N1CCc2c(-c3cccc4c3CCN4C(=O)c3nc4c(s3)CN(CCOCCO)CC4)cccc21 [Example 120, [4,4′-biindoline]-1,1′-diylbis((5-(2-(2-hydroxyethoxy)ethyl)-4,5,6,7-tetrahydrothiazolo[5,4-c]pyridin-2-yl)methanone)] |
| < 25 nM | Cc1nc(C(=O)Nc2cccc(-c3cccc4c3CCN4C(=O)c3nc(C)c(CN[C@H](C(=O)O)C4CCOCC4)s3)c2C)sc1CN[C@H](C(=O)O)C1CCOCC1 [Example 59, (S)-2-((2-(3-(1-(5-(((S)-carboxy(tetrahydro-2H-pyran-4-yl)methylamino)methyl)-4-methylthiazole-2-carbonyl)indolin-4-yl)-2-methylphenylcarbamoyl)-4-methylthiazol-5-yl)methylamino)-2-(tetrahydro-2H-pyran-4-yl)acetic acid] |

From patent US20210040118A1, “IMMUNOMODULATORS, COMPOSITIONS AND METHODS THEREOF” (BETTA PHARMACEUTICALS CO., LTD, priority 2018, published 2021)
